Measurements as given in patent publication US6632829B2, “Sulfonamides and derivatives thereof that modulate the activity of endothelin” (Texas Biotechnology Corp., priority 1996, dated 2003).

How the values were obtained:
[1] = target: T1, human ETA receptors (Homo sapiens, UniProt P25101); test: Endothelin binding inhibition, Binding Test #1: competition with 125I-ET-1 for ETA receptors on TE 671 cell membranes
T1 construct: endogenous in cells; host or cells: TE 671 cells (ATCC HTB 139), membrane preparation
T1 sequence (P25101 21-427): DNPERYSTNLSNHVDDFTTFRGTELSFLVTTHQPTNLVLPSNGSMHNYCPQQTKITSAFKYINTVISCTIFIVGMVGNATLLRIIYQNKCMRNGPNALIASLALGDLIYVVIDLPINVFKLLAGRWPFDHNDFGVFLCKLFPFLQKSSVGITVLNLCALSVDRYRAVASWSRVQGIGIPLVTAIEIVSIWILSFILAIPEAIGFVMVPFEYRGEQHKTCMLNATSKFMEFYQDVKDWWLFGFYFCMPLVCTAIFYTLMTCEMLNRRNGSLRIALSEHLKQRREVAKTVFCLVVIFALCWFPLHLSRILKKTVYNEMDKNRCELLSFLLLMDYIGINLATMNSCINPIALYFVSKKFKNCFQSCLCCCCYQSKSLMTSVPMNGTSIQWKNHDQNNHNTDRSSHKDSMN
Procedure: (§1) Cells from multiple flasks were collected by scraping, pooled and centrifuged for 10 min at 190×g. The cells were resuspended in phosphate buffered saline (PBS) containing 10 mM EDTA using a Tenbroeck homogenizer. The suspension was centrifuged at 4° C. at 57,800×g for 15 min, the pellet was resuspended in 5 mL of buffer A (5 mM HEPES buffer, pH 7.4 containing aprotinin (100 KIU/mL)) and then frozen and thawed once. 5 mL of Buffer B (5 mM HEPES Buffer, pH 7.4 containing 10 mM MnCl2 and 0.001% deoxyribonuclease Type 1) was added, the suspension mixed by inversion and then incubated at 37° C. for 30 minutes. The mixture was centrifuged at 57,800×g as described above, the pellet washed twice with buffer A and then resuspended in buffer C (30 mM HEPES buffer, pH 7.4 containing aprotinin (100 KIU/mL) to give a final protein concentration of 2 mg/mL and stored at −70° C. until use.
The membrane suspension (50 μL), containing up to 8 μg of membrane protein, was added to each of (A), (B), or (C). […] Alternatively, the incubation was conducted at 24° C.
The supernatant, containing unbound radioactivity, was decanted and the pellet counted on a Genesys multiwell gamma counter. The degree of inhibition of binding (D) was calculated according to the following equation: [formula]
Each test was generally performed in triplicate.

[2] = target: T2, human ETB receptor (Homo sapiens, UniProt P24530); test: Endothelin binding inhibition, Binding Test #2: competition with 125I-ET-1 for ETB receptors on transfected COS7 cell membranes
T2 construct: expressed in transfected cells; host or cells: COS7 cells
T2 sequence (P24530 27-442): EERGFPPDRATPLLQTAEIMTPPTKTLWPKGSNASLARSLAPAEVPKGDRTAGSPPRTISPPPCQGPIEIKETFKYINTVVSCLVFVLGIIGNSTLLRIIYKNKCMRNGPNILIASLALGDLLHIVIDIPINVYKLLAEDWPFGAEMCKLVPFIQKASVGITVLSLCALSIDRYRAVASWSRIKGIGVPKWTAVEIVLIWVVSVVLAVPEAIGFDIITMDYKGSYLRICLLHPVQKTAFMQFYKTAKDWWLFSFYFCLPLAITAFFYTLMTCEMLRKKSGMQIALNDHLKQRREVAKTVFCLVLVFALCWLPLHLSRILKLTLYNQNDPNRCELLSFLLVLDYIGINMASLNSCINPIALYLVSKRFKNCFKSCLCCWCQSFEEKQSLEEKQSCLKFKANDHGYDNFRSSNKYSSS
From the text: Compounds that are potential endothelin antagonists are identified by testing their ability to compete with ^125I-labeled ET-1 for binding to human ETA receptors or ETB receptors present on isolated cell membranes. The effectiveness of the test compound as an antagonist or agonist of the biological tissue response of endothelin can also be assessed by measuring the effect on endothelin induced contraction of isolated rat thoracic aortic rings. The ability of the compounds to act as antagonists or agonists for ETB receptors can be assess by testing the ability of the compounds are to inhibit endothelin-1 induced prostacyclin release from cultured bovine aortic endothelial cells.
COS7 cells were transfected with DNA encoding the ETB receptor, The resulting cells, which express the human ETB receptor, were grown to confluence in T-150 flasks. Membrane was prepared as described above. The binding assay was performed as described above using the membrane preparation diluted with binding buffer to a concentration of 1 μg/50 μL.
as §1, with “Briefly, the COS7 cells, described above, that had been transfected with DNA encoding the ETB receptor and express the human ETB receptor on their surfaces were grown to confluence in T-175 flasks. Cells” for “Cells”, “C.” for “C. at”, “once. Five” for “once. 5”, “2 mg/mL.” for “2 mg/mL and stored at −70° C. until use.”
The binding assay was performed as described above using the membrane preparation diluted to give 1 μg/50 μL of binding buffer.

[3] = incubation at 24° C. (values marked †)
[4] = incubation at 4° C. (values without †)

Row | IC50 [1, 3] | IC50 [2, 3] | IC50 [1, 4] | IC50 [2, 4] | inhibition at 100 µM ([2]; read-out: ETB % inhibition @ 100 μM, @ 100 μM, incubation at 24° C.) | Compound
1 | 27.3 nM | 12200 nM | – | – | – | Cc1noc(NS(=O)(=O)c2ccsc2C(=O)Cc2ccc3c(c2)OCO3)c1C [N-(3,4-dimethyl-5-isoxazolyl)-2-[3,4-(methylenedioxy)phenylacetyl]thiophene-3-sulfonamide]
2 | 48 nM | 1100 nM | – | – | – | CCc1ccc(Cc2sc3ccccc3c2S(=O)(=O)Nc2onc(C)c2Br)cc1 [N-(4-bromo-3-methyl-5-isoxazolyl)-2-(4-ethylbenzyl)benzo[b]thiophene-3-sulfonamide]
3 | 932 nM | 46800 nM | – | – | – | N-(4-chloro-3-methyl-5-isoxazolyl)-2-phenylbenzo[b]thiophene sulfonamide
4 | 500 nM | 79000 nM | – | – | – | Cc1noc(NS(=O)(=O)c2sccc2-c2ccc3c(c2)OCO3)c1Br [N-(4-bromo-3-methyl-5-isoxazolyl)-3-[(3,4-methylenedioxy)phenyl]thiophene-2-sulfonamide]
5 | 9.1 nM | 5500 nM | – | – | – | Cc1noc(NS(=O)(=O)c2ccsc2C(=O)Cc2ccc3c(c2)OCO3)c1Br [N-(4-bromo-3-methyl-5-isoxazolyl)-2-[(3,4-methylenedioxy)phenylacetyl]thiophene-3-sulfonamide]
6 | 0.66 nM | 9550 nM | – | – | – | 3-[N-(Benzo-2,1,3-thiadiazol-5-yl)aminosulfonyl]thiophene-2-carboxylic acid, 3-cyanomethyl-2,4,6-trimethylanilide
7 | 12300 nM | 1280 ± 710 nM | 3460 nM | 529 nM | – | Cc1noc(NS(=O)(=O)c2csc(-c3ccccc3C=O)c2)c1Br [N-(4-bromo-3-methyl-5-isoxazolyl)-5-(2-formylphenyl)thiophene-3-sulfonamide]
8 | 107 nM | 2400 nM | – | – | – | Cc1cc(CCC(C)C)ccc1-c1ccsc1S(=O)(=O)Nc1onc(C)c1Br [N-(4-bromo-3-methyl-5-isoxazolyl)-3-(4-iso-pentyl-2-methylphenyl)thiophene-2-sulfonamide]
9 | 28100 nM | 60600 nM | – | – | – | Cc1noc(NS(=O)(=O)c2ccc(C(=O)Nc3ccccc3)s2)c1Cl [N-(4-chloro-3-methyl-5-isoxazolyl)-5-(phenylaminocarbonyl)thiophene-2-sulfonamide]
10 | 6.5 nM | 7400 nM | – | – | – | Cc1noc(NS(=O)(=O)c2ccsc2C(=O)Oc2ccc3c(c2)OCO3)c1Cl [N-(4-chloro-3-methyl-5-isoxazolyl)-2-[3,4-(methylenedioxy)phenoxycarbonyl]thiophene-3-sulfonamide]
11 | 6330 nM | 8820 nM | – | – | – | Cc1noc(NS(=O)(=O)c2c(-c3ccccc3C#N)sc3ccccc23)c1Cl [N-(4-chloro-3-methyl-5-isoxazolyl)-2-[2-(cyano)phenyl]benzo[b]thiophene-3-sulfonamide]
12 | 970 nM | 3900 nM | – | – | – | Cc1noc(NS(=O)(=O)c2ccsc2C(=O)NS(=O)(=O)c2cccc3c(N(C)C)cccc23)c1Br [N-(4-bromo-3-methyl-5-isoxazolyl)-2-[(5-dimethylamino-1-naphthyl)sulfonylaminocarbonyl]thiophene-3-sulfonamide]
13 | 20000 nM | > 100000 nM | – | – | – | Cc1noc(NS(=O)(=O)c2ccsc2C(=O)N2CCN(Cc3ccc4c(c3)OCO4)CC2)c1Cl [N-(4-chloro-3-methyl-5-isoxazolyl)-2-{[4-(3,4-methylenedioxybenzyl)piperazin-1-yl]carbonyl}thiophene-3-sulfonamide]
14 | 14000 nM | 6200 nM | – | – | – | Cc1noc(NS(=O)(=O)c2ccsc2N)c1Cl [N-(4-chloro-3-methyl-5-isoxazolyl)-2-aminothiophene-3-sulfonamide]
15 | 21 nM | 6500 nM | – | – | – | Cc1noc(NS(=O)(=O)c2ccsc2C(=O)Cc2ccc3c(c2)OCO3)c1Cl [N-(4-chloro-3-methyl-5-isoxazolyl)-2-[3,4-(methylenedioxy)phenylacetyl]thiophene-3-sulfonamide]
16 | 684 nM | 105000 nM | – | – | – | Cc1ccccc1OC(=O)c1sccc1S(=O)(=O)Nc1onc(C)c1Br [N-(4-bromo-3-methyl-5-isoxazolyl)-2-[(2-methylphenoxy)carbonyl]thiophene-3-sulfonamide]
17 | 53 nM | 16000 nM | – | – | – | Cc1noc(NS(=O)(=O)c2ccsc2CC(O)c2ccc3c(c2)OCO3)c1Cl (stereo not drawn) [N-(4-chloro-3-methyl-5-isoxazolyl)-2-[β-hydroxy(3,4-methylenedioxy)phenylethyl]thiophene-3-sulfonamide]
18 | 3610 nM | – | – | – | 30% | Cc1noc(NS(=O)(=O)c2ccsc2C(=O)Oc2ccc3c(c2)OCO3)c1C [N-(3,4-dimethyl-5-isoxazolyl)-2-{(3,4-(methylenedioxy)phenoxy]carbonyl}thiophene-3-sulfonamide]
19 | 1.11 nM | 33800 nM | – | – | – | Cc1cc(C)c(NC(=O)c2sccc2S(=O)(=O)Nc2onc(C)c2C)c(C)c1CO [N-(3,4-dimethyl-5-isoxazolyl)-2-(3-hydroxymethyl-2,4,6-trimethylphenylaminocarbonyl)thiophene-3-sulfonamide]
20 | 55 nM | 1620 nM | – | – | – | Cc1cc(C)c(CCc2ccsc2S(=O)(=O)Nc2onc(C)c2Br)c(C)c1 [N-(4-bromo-3-methyl-5-isoxazolyl)-3-(2,4,6-trimethylphenethyl)thiophene-2-sulfonamide]
21 | 5.5 nM | 364 nM | – | – | – | Cc1onc(NS(=O)(=O)c2c(Cc3ccc4c(c3)OCO4)sc3ccccc23)c1Cl [N-(4-chloro-5-methyl-3-isoxazolyl)-2-[3,4-(methylenedioxy)benzyl]benzo[b]thiophene-3-sulfonamide]
22 | 158 nM | 63100 nM | – | – | – | COc1ccc(NC(=O)c2sccc2S(=O)(=O)Nc2onc(C)c2Cl)c(OC)c1 [N-(4-chloro-3-methyl-5-isoxazolyl)-2-[(2,4-dimethoxyphenyl)aminocarbonyl]thiophene-3-sulfonamide]
23 | 13 nM | 38000 nM | – | – | – | Cc1noc(NS(=O)(=O)c2ccsc2C(=O)Nc2ccccc2O)c1Br [N-(4-bromo-3-methyl-5-isoxazolyl)-2-[(2-hydroxyphenyl)aminocarbonyl]thiophene-3-sulfonamide]
24 | 11 ± 5 nM | 936 ± 95 nM | – | – | – | Cc1noc(NS(=O)(=O)c2c(Cc3ccc4c(c3)OCO4)sc3ccccc23)c1Cl [N-(4-chloro-3-methyl-5-isoxazolyl)-2-[(3,4-methylenedioxy)benzyl]benzo[b]thiophene-3-sulfonamide]
